# Experimental data as given in patent US4740601A, “Imidazole derivatives having antimicrobial activities” (SS Pharmaceutical Co., Ltd., priority 1985, dated 1988).
# System: Staphylococcus epidermidis ATCC 12228
# Test: antimicrobial activity, MIC
# Type: cell-based
# Conditions: Staphylococcus epidermidis, ATCC12228, Staphylococcus epidermidis ATCC 12228; read-out: MIC
row,Compound,MIC [mg/L]
1,"CCCCCOc1ccccc1C(=CSCC)n1ccnc1 (single isomer, unassigned) [Compound 34]",3.12

# System: Trichophyton mentagrophytes IFO 5812
# Test: antimicrobial activity, MIC
# Type: cell-based
# Conditions: Trichophyton mentagrophytes, IFO5812, Trichophyton mentagrophytes IFO 5812; read-out: MIC
row,Compound,MIC [mg/L]
1,"CCCCCOc1ccccc1C(=CSCC)n1ccnc1 (single isomer, unassigned) [Compound 34]",< 0.2

# System: Cladosporium fulvum IAM 5006
# Test: antimicrobial activity, MIC
# Type: cell-based
# Conditions: Fulvia fulva, IAM5006, Cladosporium fulvum IAM 5006; read-out: MIC
row,Compound,MIC [mg/L]
1,"CCCCCOc1ccccc1C(=CSCC)n1ccnc1 (single isomer, unassigned) [Compound 34]",25

# System: Candida albicans NHL 4019
# Test: antimicrobial activity, MIC
# Type: cell-based
# Conditions: Candida albicans, NHL4019, Candida albicans NHL 4019; read-out: MIC
row,Compound,MIC [mg/L]
1,"CCCCCOc1ccccc1C(=CSCC)n1ccnc1 (single isomer, unassigned) [Compound 34]",50

# System: Pyricularia oryzae IAM 5016
# Test: microbe, parasite or virus in culture
# Type: cell-based
# Conditions: Pyricularia oryzae, IAM5016, Pyricularia oryzae IAM 5016
row,Compound,MIC [mg/L]
1,"CCCCCOc1ccccc1C(=CSCC)n1ccnc1 (single isomer, unassigned) [Compound 34]",< 0.2

# System: Staphylococcus aureus Terajima
# Test: antimicrobial activity, MIC
# Type: cell-based
# Conditions: Staphylococcus aureus, read-out: MIC
row,Compound,MIC [mg/L]
1,"CCCCCOc1ccccc1C(=CSCC)n1ccnc1 (single isomer, unassigned) [Compound 34]",12.5

# System: Helminthosporium sesamum IAM 5012
# Test: antimicrobial activity, MIC
# Type: cell-based
# Conditions: Helminthosporium, IAM5012, Helminthosporium sesamum IAM 5012; read-out: MIC
row,Compound,MIC [mg/L]
1,"CCCCCOc1ccccc1C(=CSCC)n1ccnc1 (single isomer, unassigned) [Compound 34]",< 0.2

# System: Aspergillus niger ATCC 9642
# Test: antimicrobial activity, MIC
# Type: cell-based
# Conditions: Aspergillus niger, ATCC9642, Aspergillus niger ATCC 9642; read-out: MIC
row,Compound,MIC [mg/L]
1,"CCCCCOc1ccccc1C(=CSCC)n1ccnc1 (single isomer, unassigned) [Compound 34]",0.78

# System: Penicillium chrysogenum ATCC 6010
# Test: antimicrobial activity, MIC
# Type: cell-based
# Conditions: Penicillium chrysogenum, ATCC6010, Penicillium chrysogenum ATCC 6010; read-out: MIC
row,Compound,MIC [mg/L]
1,"CCCCCOc1ccccc1C(=CSCC)n1ccnc1 (single isomer, unassigned) [Compound 34]",3.12

# System: Debaryomyces kloeckeri IFO 0015
# Test: antimicrobial activity, MIC
# Type: cell-based
# Conditions: IFO0015, read-out: MIC
row,Compound,MIC [mg/L]
1,"CCCCCOc1ccccc1C(=CSCC)n1ccnc1 (single isomer, unassigned) [Compound 34]",0.78

# System: Trichophyton rubrum NHL J
# Test: antimicrobial activity, MIC
# Type: cell-based
# Conditions: Trichophyton rubrum, Trichophyton rubrum NHL J; read-out: MIC
row,Compound,MIC [mg/L]
1,"CCCCCOc1ccccc1C(=CSCC)n1ccnc1 (single isomer, unassigned) [Compound 34]",< 0.2

# System: Staphylococcus aureus FDA 209P
# Test: antimicrobial activity, MIC
# Type: cell-based
# Conditions: Staphylococcus aureus, FDA209P, read-out: MIC
row,Compound,MIC [mg/L]
1,"CCCCCOc1ccccc1C(=CSCC)n1ccnc1 (single isomer, unassigned) [Compound 34]",12.5

# System: Saccharomyces ruxii 6507
# Test: antimicrobial activity, MIC
# Type: cell-based
# Conditions: Saccharomyces ruxii 6507; read-out: MIC
row,Compound,MIC [mg/L]
1,"CCCCCOc1ccccc1C(=CSCC)n1ccnc1 (single isomer, unassigned) [Compound 34]",< 0.2

# System: Staphylococcus aureus Smith
# Test: antimicrobial activity, MIC
# Type: cell-based
# Conditions: Staphylococcus aureus, read-out: MIC
row,Compound,MIC [mg/L]
1,"CCCCCOc1ccccc1C(=CSCC)n1ccnc1 (single isomer, unassigned) [Compound 34]",12.5

# System: Microsporum audounii IFO 6074
# Test: antimicrobial activity, MIC
# Type: cell-based
# Conditions: Microsporum, IFO6074, Microsporum audounii IFO 6074; read-out: MIC
row,Compound,MIC [mg/L]
1,"CCCCCOc1ccccc1C(=CSCC)n1ccnc1 (single isomer, unassigned) [Compound 34]",< 0.2

# System: Trichophyton tonsurans IFO 5928
# Test: antimicrobial activity, MIC
# Type: cell-based
# Conditions: Trichophyton tonsurans, IFO5928, Trichophyton tonsurans IFO 5928; read-out: MIC
row,Compound,MIC [mg/L]
1,"CCCCCOc1ccccc1C(=CSCC)n1ccnc1 (single isomer, unassigned) [Compound 34]",< 0.2

# System: Candida albicans Yu-1200
# Test: antimicrobial activity, MIC
# Type: cell-based
# Conditions: YU1200, read-out: MIC
row,Compound,MIC [mg/L]
1,"CCCCCOc1ccccc1C(=CSCC)n1ccnc1 (single isomer, unassigned) [Compound 34]",50

# System: Gibberella fujikuroi IAM 8046
# Test: antimicrobial activity, MIC
# Type: cell-based
# Conditions: Fusarium fujikuroi, IAM8046, Gibberella fujikuroi IAM 8046; read-out: MIC
row,Compound,MIC [mg/L]
1,"CCCCCOc1ccccc1C(=CSCC)n1ccnc1 (single isomer, unassigned) [Compound 34]",< 0.2

# System: Sarcina lutea ATCC 9341
# Test: antimicrobial activity, MIC
# Type: cell-based
# Conditions: Micrococcus luteus, ATCC9341, Sarcina lutea ATCC 9341; read-out: MIC
row,Compound,MIC [mg/L]
1,"CCCCCOc1ccccc1C(=CSCC)n1ccnc1 (single isomer, unassigned) [Compound 34]",1.56

# System: Aspergillus oryzae IMF 4014
# Test: antimicrobial activity, MIC
# Type: cell-based
# Conditions: Aspergillus oryzae, IMF4014, Aspergillus oryzae IMF 4014; read-out: MIC
row,Compound,MIC [mg/L]
1,"CCCCCOc1ccccc1C(=CSCC)n1ccnc1 (single isomer, unassigned) [Compound 34]",1.56

# System: Epidermophyton floccosum IFO 9045
# Test: antimicrobial activity, MIC
# Type: cell-based
# Conditions: Epidermophyton floccosum, IFO9045, Epidermophyton floccosum IFO 9045; read-out: MIC
row,Compound,MIC [mg/L]
1,"CCCCCOc1ccccc1C(=CSCC)n1ccnc1 (single isomer, unassigned) [Compound 34]",1.56

# System: Fusarium moniliforme IAM 5062
# Test: antimicrobial activity, MIC
# Type: cell-based
# Conditions: Fusarium verticillioides, IAM5062, Fusarium moniliforme IAM 5062; read-out: MIC
row,Compound,MIC [mg/L]
1,"CCCCCOc1ccccc1C(=CSCC)n1ccnc1 (single isomer, unassigned) [Compound 34]",0.39

# System: Bacillus subtilis ATCC 6633
# Test: antimicrobial activity, MIC
# Type: cell-based
# Conditions: Bacillus subtilis, ATCC6633, Bacillus subtilis ATCC 6633; read-out: MIC
row,Compound,MIC [mg/L]
1,"CCCCCOc1ccccc1C(=CSCC)n1ccnc1 (single isomer, unassigned) [Compound 34]",3.12

# System: Saccharomyces cerevisiae ATCC 9763
# Test: antimicrobial activity, MIC
# Type: cell-based
# Conditions: Saccharomyces cerevisiae, ATCC9763, Saccharomyces cerevisiae ATCC 9763; read-out: MIC
row,Compound,MIC [mg/L]
1,"CCCCCOc1ccccc1C(=CSCC)n1ccnc1 (single isomer, unassigned) [Compound 34]",< 0.2

# System: Microsporum gypseum IFO 8231
# Test: antimicrobial activity, MIC
# Type: cell-based
# Conditions: Nannizzia gypsea, IFO8231, Microsporum gypseum IFO 8231; read-out: MIC
row,Compound,MIC [mg/L]
1,"CCCCCOc1ccccc1C(=CSCC)n1ccnc1 (single isomer, unassigned) [Compound 34]",< 0.2

# System: Streptococcus faecalis IFO 12964
# Test: antimicrobial activity, MIC
# Type: cell-based
# Conditions: Enterococcus faecalis, IFO12964, Streptococcus faecalis IFO 12964; read-out: MIC
row,Compound,MIC [mg/L]
1,"CCCCCOc1ccccc1C(=CSCC)n1ccnc1 (single isomer, unassigned) [Compound 34]",12.5

# System: Micrococcus lysodeixticus IFO 3333
# Test: antimicrobial activity, MIC
# Type: cell-based
# Conditions: Micrococcus, IFO3333, Micrococcus lysodeixticus IFO 3333; read-out: MIC
row,Compound,MIC [mg/L]
1,"CCCCCOc1ccccc1C(=CSCC)n1ccnc1 (single isomer, unassigned) [Compound 34]",0.39

# System: Trichophyton mentagrophytes QM 248
# Test: antimicrobial activity, MIC
# Type: cell-based
# Conditions: Trichophyton mentagrophytes, QM248, Trichophyton mentagrophytes QM 248; read-out: MIC
row,Compound,MIC [mg/L]
1,"CCCCCOc1ccccc1C(=CSCC)n1ccnc1 (single isomer, unassigned) [Compound 34]",< 0.2

# System: Microsporum cookei IFO 8303
# Test: antimicrobial activity, MIC
# Type: cell-based
# Conditions: Paraphyton cookei, IFO8303, Microsporum cookei IFO 8303; read-out: MIC
row,Compound,MIC [mg/L]
1,"CCCCCOc1ccccc1C(=CSCC)n1ccnc1 (single isomer, unassigned) [Compound 34]",1.56
